Data reported in patent US11826414B2, “Measurement of afucosylated IgG Fc glycans and related vaccination methods” (priority 2017, dated 2023).
Read-outs that look alike come from different tables or passages of the source.

Experiments:
dengue 2 [1] = format: cell-based, dengue virus; conditions: for Inhibition of dengue 2 infection (ADE): FcγRIIa+FcγRIIIa+ monocytes, pre-incubation with inhibitor
dengue 2 [2] = format: cell-based, dengue virus; conditions: FcγRIIa+FcγRIIIa− U937 cells treated with PMA/ionomycin
[3] = system: H1N1 influenza virus (IAV); format: cell-based; conditions: DC-SIGN U937 cells, no antibodies present
Zika virus (ZIKV) = format: cell-based; conditions: DC-SIGN U937 cells, no antibodies present
[4] = system: FcγRIIa^+FcγRIIIa^+ monocytes; conditions: at concentrations tested
[5] = system: H3N2 influenza virus (IAV); format: cell-based; conditions: DC-SIGN U937 cells, no antibodies present

Row | Molecule | Inhibition of dengue 2 infection (ADE) (dengue 2 [1]) | Inhibition of dengue 2 infection (ADE) (dengue 2 [1]; listed as PRT) | Inhibition of enhanced infection after PMA/ionomycin treatment (dengue 2 [2]) | Inhibition of infection [3] | Inhibition of infection (Zika virus (ZIKV)) | Cell viability [4] | Inhibition of dengue infection (dengue 2 [1]; 5 μM peptide, all MOIs tested) | Inhibition of dengue 2 replication, time of treatment (dengue 2 [1]; treatment of cells up to 2 hours following infection) | Inhibition of infection [5]
1 | Cc1cccc(Nc2nc(N[C@@H]3CCCC[C@@H]3N)ncc2C(N)=O)c1 [PRT318] | inhibited in FcγRIIa^+FcγRIIIa^+ monocytes in a concentration-dependent manner | inhibited dengue 2 infection in FcγRIIa+FcγRIIIa+ monocytes in a concentration-dependent manner |  |  |  |  |  |  | 
2 | 11R-VIVIT | inhibited dengue 2 infection in a concentration-dependent manner |  | could be inhibited | did not inhibit | did not inhibit | unaffected | > 70% | inhibited dengue 2 replication | did not inhibit
